Legend:
D189K hMC4R [1] = target: T1, D189K hMC4R (Homo sapiens, UniProt P32245, D189K)
D189S hMC4R [2] = target: T2, D189S hMC4R (Homo sapiens, UniProt P32245, D189S); experiment: cAMP AlphaScreen antagonist assay; type: cell-based; settings: Schild analysis, agonist NDP-MSH
wildtype hMC4R = wildtype hMC4R (Homo sapiens, UniProt P32245); experiment: cAMP AlphaScreen agonist / inverse agonist assay; type: cell-based; settings: WT hMC4R, basal = signal at 10^−12 M
D189K hMC4R [3] = target: T1, D189K hMC4R; experiment: cAMP AlphaScreen agonist / inverse agonist assay; type: cell-based
D189Q hMC4R [4] = target: T3, D189Q hMC4R (Homo sapiens, UniProt P32245, D189Q); experiment: cAMP AlphaScreen agonist / inverse agonist assay; type: cell-based; settings: for Inverse agonist percent decrease from basal activity: D189Q hMC4R
D189N hMC4R [5] = target: T4, D189N hMC4R (Homo sapiens, UniProt P32245, D189N); experiment: cAMP AlphaScreen agonist / inverse agonist assay; type: cell-based; settings: D189N hMC4R
D189A hMC4R [6] = target: T5, D189A hMC4R (Homo sapiens, UniProt P32245, D189A); experiment: cAMP AlphaScreen agonist / inverse agonist assay; type: cell-based
D189E hMC4R = D189E hMC4R (Homo sapiens, UniProt P32245, D189E); experiment: cAMP AlphaScreen agonist / inverse agonist assay; type: cell-based; settings: for Inverse agonist percent decrease from basal activity: D189E hMC4R
D189S hMC4R [7] = target: T2, D189S hMC4R; experiment: cAMP AlphaScreen agonist / inverse agonist assay; type: cell-based; settings: D189S hMC4R
D189N hMC4R [8] = target: T4, D189N hMC4R; experiment: cAMP AlphaScreen antagonist assay; type: cell-based
D189A hMC4R [9] = target: T5, D189A hMC4R; experiment: cAMP AlphaScreen antagonist assay; type: cell-based
D189Q hMC4R [10] = target: T3, D189Q hMC4R; experiment: cAMP AlphaScreen antagonist assay; type: cell-based
D189K hMC4R [11] = target: T1, D189K hMC4R; experiment: cAMP AlphaScreen antagonist assay; type: cell-based

Chain of D189E hMC4R (P32245 whole entry D189E): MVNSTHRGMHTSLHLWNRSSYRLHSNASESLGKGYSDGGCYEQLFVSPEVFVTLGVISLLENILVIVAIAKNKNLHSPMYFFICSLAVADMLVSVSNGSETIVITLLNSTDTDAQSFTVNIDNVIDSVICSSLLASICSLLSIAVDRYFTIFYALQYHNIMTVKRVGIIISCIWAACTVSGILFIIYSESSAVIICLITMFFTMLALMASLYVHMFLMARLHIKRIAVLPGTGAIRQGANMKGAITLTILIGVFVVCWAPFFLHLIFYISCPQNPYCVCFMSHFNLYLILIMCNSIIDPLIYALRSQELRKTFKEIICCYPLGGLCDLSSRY
T3 sequence (P32245 whole entry D189Q): as the sequence (P32245 whole entry D189E) above, with E189Q counted along it
T1 sequence (P32245 whole entry D189K): as the sequence (P32245 whole entry D189E) above, with E189K counted along it
T2 sequence (P32245 whole entry D189S): as the sequence (P32245 whole entry D189E) above, with E189S counted along it
Chain of wildtype hMC4R (P32245 whole entry): as the sequence (P32245 whole entry D189E) above, with E189D counted along it
T5 sequence (P32245 whole entry D189A): as the sequence (P32245 whole entry D189E) above, with E189A counted along it
T4 sequence (P32245 whole entry D189N): as the sequence (P32245 whole entry D189E) above, with E189N counted along it

Compound | Decreased I125-AGRP binding affinity versus wildtype (D189K hMC4R [1]) [fold] | Antagonist pA2 (D189S hMC4R [2]) | Inverse agonist percent decrease from basal signal (wildtype hMC4R) | Inverse agonist percent decrease from basal signal (wildtype hMC4R; listed as AGRP) [%] | Inverse agonist activity (D189K hMC4R [3]) | Inverse agonist percent decrease from basal activity (D189Q hMC4R [4]) | Inverse agonist percent decrease from basal activity (D189N hMC4R [5]) | Inverse agonist activity (D189A hMC4R [6]) | Inverse agonist percent decrease from basal activity (D189E hMC4R) | Inverse agonist percent decrease from basal activity (D189S hMC4R [7]) | EC50 (D189Q hMC4R [4]) [µM] | Kb (D189N hMC4R [8]) [nM] | Kb (D189A hMC4R [9]) [µM] | EC50 (D189E hMC4R) [µM] | Kb (D189Q hMC4R [10]) [nM] | Kb (D189K hMC4R [11]) [µM]
agouti-related protein (AGRP86–132) [hAGRP(86–132), reference compound] | 10 | 8.2±0.2 | 2.4±0.5 (−35%) | 35 | no apparent inverse agonist activity | 17±5 (−35%) | 30±10 (−10%) | no apparent inverse agonist activity | 4.4±0.1 (−35%) | 20±10 (−20%) | – | – | – | – | – | –
C[C@@H]1NC(=O)[C@H](CC(=O)O)NC(=O)[C@H](Cc2ccccc2)NC(=O)[C@H](Cc2ccccc2)NC(=O)[C@H](CCCNC(=N)N)NC(=O)[C@@H]2CCCN2C(=O)[C@H]2CCCN2C(=O)[C@H](Cc2ccccc2)NC1=O [MDE3–119-4c, c[Pro-Arg-Phe-Phe-Asp-Ala-Phe-DPro]] | – | – | −35% | – | – | −45% | – | – | −40% | −15% | 7 | 398 | > 3.16 | 3 | 1580 | > 3.16
